In US9156860B2, “Boron-containing small molecules” (Anacor Pharmaceuticals, Inc., priority 2011, dated 2015):

Tests used:
[1] = test system: Dermacentor variabilis tick nymphs; test: Efficacy against nymphal-stage American dog ticks on rats; format: in vivo
Experimental: Evaluations were conducted using a modified version of the assay as described in Gutierrez et al., J. Med. Entomol. 43(3): 526-532 (2006). This assay may be modified by simply using different tick species (the reference describes Amblyomma americanum ticks), such as Dermacentor variabilis or Rhipicephalus sanguineus ticks, as well as different life-stages (larval, nymphal or adult). Further, the reference describes using topical application methods, but oral, transdermal and subcutaneous injection routes of administration may be used.
In these studies, adult male or female rats, approximately 300 grams in size, were randomly assigned to a treatment group or a control (untreated negative control or fipronil positive control) group. Each group consisted of three (3) to five (5) rats. […] On Day 2, approximately forty-eight (48) hours after treatment, live and dead ticks were removed from animals and counted.
Live tick counts were transformed using the natural logarithm transformation plus one (Ln count+1); addition of one to each count served to adjust for counts that were zero. […] GM percent efficacy of treatments was calculated using the following formula:
Enantiomers were evaluated for activity against American dog tick (Dermacentor variabilis) nymphs on rats. […] On Day 2, approximately forty-eight (48) hours after treatment, live and dead ticks were removed from animals and counted. […]

[2] = test system: Lone star tick larvae (Amblyomma americanum); test: Larval immersion microassay against larval-stage Lone star ticks; conditions: for mortality at 300 µM: Amblyomma americanum, 24 h, read-out: activity (percent larval mortality)
Experimental: The larval immersion microassay was conducted as described in detail in White, et al., J. Med. Entomol. […] Compounds of the invention were formulated in dimethylsulfoxide (DMSO) to prepare a stock solution at a concentration of at least 10 mM. […] Approximately 30-50 Lone star tick larvae (Amblyomma americanum) were submerged into each well containing compounds. After a 30 minute immersion period, larvae were removed with a wide-bore pipette tip in 0.05 ml of fluid, dispensed into a commercial paper tissue biopsy bag which was sealed at the top with a plastic dialysis clip, inverted and allowed to air dry for 60 minutes. Bags containing larvae were then incubated at approximately 27 degrees Celsius and >90% relative humidity. After 24 hours, bags were opened, live and dead larvae were counted and percent larval mortality was calculated.
7 contains one chiral center, and is therefore a racemic mixture comprised of approximately 50% R- and 50% S-enantiomer. In vitro and surrogate animal (rat) studies were conducted to evaluate the biological activity of the R- and S-enantiomers of 7. For the in vitro study, larvae of the Lone star tick (Amblyomma americanum) were exposed to 17 (S-enantiomer) and 18 (R-enantiomer) using the larval immersion microassay at a concentration of no greater than 0.3 mM. Following exposure, larvae were removed, transferred to a tissue biopsy bag and incubated at approximately 27 degrees Celsius and >90% relative humidity. After 24 hours, biopsy bags were opened and the numbers of live and dead larvae were determined.

[3] = Tolerability of oral treatment in dogs; format: in vivo, beagle dogs
Experimental: The therapeutic (knockdown) and residual efficacy of 7, administered orally at a point dosages of 5 and 25 mg/kg bodyweight, was evaluated against adult American dog tick (D. variabilis) and cat flea (C. felis) infestations on dogs. Sixteen (16) male and female beagle dogs were allocated to one of four treatment groups: Untreated control group (n=4 dogs); 7, 5 mg/kg liquid oral dosage form (n=4 dogs); 7, 25 mg/kg liquid oral dosage form (n=4 dogs); and 7, 25 mg/kg solid oral dosage form. Liquid dosage forms were prepared by dissolving 7 in a solution of 55% polyethylene glycol-300, 35% propylene glycol and 10% water at 25 mg/ml. Solid oral dosage form was prepared by thoroughly mixing 7 with microcrystalline cellulose and croscarmellose sodium (50:47:3, w/w) and placing into size 00 gelatin capsules. On Day 0, all dogs were orally administered 7 at the prescribed point dosages. Twenty-four (24) hours before treatment (Day −1), all dogs were infested with approximately 50 unfed, adult-stage American dog ticks (D. variabilis; approximately 50% male and 50% female). On Day 2, approximately 48 hours after treatment, ticks were removed and counts were conducted to determine the number and life-status classification of ticks present on all dogs (normal, moribund or dead; attached or detached). For all groups, dogs were re-infested with approximately 50 unfed, adult D. variabilis ticks on Days 5 and 12, with tick classification, counts and removal on Days 7 and 14 (approximately 48 hours after each infestation). For negative control and 7 (25 mg/kg solid oral dosage form) groups, dogs were re-infested with approximately 50 unfed, adult D. variabilis ticks on Days 19 and 28, with tick classification, counts and removal on Days 21 and 30. Immediately following removal of ticks on Day 30, dogs in the negative control and 7 (25 mg/kg solid oral dosage form) groups were infested with approximately 100 unfed, adult cat fleas (C. felis). Flea counts were conducted approximately 48 hours later, on Day 32.
(§1) The therapeutic (knockdown) and residual efficacy of 7 and 8, each administered orally at a point dose of either 25 mg/kg or 50 mg/kg bodyweight, was evaluated against adult tick (Dermacentor variabilis and Rhipicephalus sanguineus) infestations on dogs. Twenty (20) male and female beagle dogs were allocated to one of five treatment groups, four (4) dogs per group: Untreated control; 7, 25 mg/kg; 7, 50 mg/kg; 8, 25 mg/kg; and 8, 50 mg/kg. On Day −1, all dogs were infested with approximately 50 unfed, adult D. variabilis ticks. On Day 0, dogs were orally administered gelatin capsules containing either 7 or 8 (50% technical active, 47% microcrystalline cellulose and 3% croscarmellose sodium, w/w) so as to achieve the desired point dosages. Ticks were counted and classified on all dogs, but not removed, on Day 1 (approximately 24 hours after treatment). On Day 2, approximately 48 hours after treatment, ticks were counted, classified and removed. Dogs were re-infested with the same number of D. variabilis ticks on Days 5, 12 and 19 with corresponding 48 hour post-infestation tick counts on Days 7, 14 and 21. Dogs were infested with approximately 50 unfed, adult brown dog ticks (Rhipicephalus sanguineus; approximately 50% male and 50% female) on Days 15 and 28, with corresponding 48 hour post-infestation tick counts on Days 17 and 30. GM percent efficacy of treatments against both tick species was calculated using the following formula: […]
The efficacy of 7, administered orally at a point dose of 25 mg/kg bodyweight, was evaluated against adult tick (Dermacentor variabilis) infestations. Twelve (12) male and female beagle dogs were allocated to three treatment groups: Untreated, negative control A; 7 group B; and 7 group C (n=4 dogs per group). Dogs were infested with approximately 50 unfed, adult D. variabilis ticks on Days −1, 5, 12, 19 and 28. […]

[4] = test system: adult American dog tick (Dermacentor variabilis); test: Example 5: efficacy against adult American dog tick infestations on dogs; format: in vivo
Experimental: as §1

[5] = test system: brown dog tick (Rhipicephalus sanguineus); test: Example 5: efficacy against brown dog tick infestations on dogs; format: in vivo
Experimental: as §1

[6] = test system: brown dog tick (Rhipicephalus sanguineus); test: Example 9: efficacy against brown dog tick infestations on dogs; format: in vivo; conditions: 50 mg/kg oral, Day 32
Experimental: (§2) The therapeutic (knockdown) and residual efficacy of 17, administered orally at a point dose of 50 mg/kg bodyweight, was evaluated against adult tick (Dermacentor variabilis and Rhipicephalus sanguineus) and adult cat flea (Ctenocephalides felis) infestations on dogs. Eight (8) male and female beagle dogs were allocated to either an untreated, negative control group or 17 group (n=4 dogs per group). Dogs were infested with approximately 50 unfed, adult D. variabilis ticks on Days −1, 5, 12, 19, and 28. On Day 0, dogs were orally administered gelatin capsules containing 17 (50% technical active, 47% microcrystalline cellulose and 3% croscarmellose sodium, w/w) at a point dose of 50 mg/kg. D. variabilis tick counts and classification were conducted on Day 1 (thumb count, approximately 24 hours after treatment) and Days 2, 7, 14, 21 and 30 (approximately 48 hours after treatment). Following removal of D. variabilis ticks on Day 30, all dogs were co-infested with approximately 50 unfed, adult brown dog ticks (R. sanguineus) and approximately 100 unfed, adult cat fleas (C. felis). Brown dog tick and cat flea counts were conducted on Day 32 (approximately 48 hours after infestation). GM percent efficacy of treatments against both tick species and fleas was calculated using the following formula: […]

[7] = Clinical signs / tolerability in rats; format: in vivo; conditions: oral ≦5 mg/kg, Example 8
[8] = test system: cat flea (Ctenocephalides felis); test: Example 9: efficacy against cat flea infestations on dogs; format: in vivo; conditions: 50 mg/kg oral, Day 32
Experimental: as §2

[9] = test system: adult American dog tick (Dermacentor variabilis); test: Example 9: efficacy against adult American dog tick infestations on dogs; format: in vivo; conditions: 50 mg/kg oral
Experimental: as §2

N#Cc1nn(-c2c(Cl)cc(C(F)(F)F)cc2Cl)c(N)c1[S+]([O-])C(F)(F)F (stereo not shown) [Fipronil, reference compound]
efficacy (% reduction in live tick counts) ([1]; positive control, oral 10 mg/kg bodyweight, all studies): > 95%

CC1(C)OB(O)c2ccc(C3=NOC(c4cc(Cl)c(F)c(Cl)c4)(C(F)(F)F)C3)cc21 (stereo not shown) [Compound 8, 5-(5-(3,5-dichloro-4-fluorophenyl)-5-(trifluoromethyl)-4,5-dihydroisoxazol-3-yl)-3,3-dimethyl-benzo[c][1,2]oxaborol-1(3H)-ol]
mortality at 300 µM [2]: ≥ 80% | tolerability ([3]; oral 25 or 50 mg/kg, Example 5): well tolerated | % efficacy ([4]; 25 mg/kg oral capsule, Day 1): (81.0) % | Geometric mean group live tick count ([4]; 25 mg/kg oral capsule, Day 1): 2.0 | Geometric mean group live tick count ([4]; 25 mg/kg oral capsule, Day 2): 0.0 | Geometric mean group live tick count ([4]; 25 mg/kg oral capsule, Day 7): 1.5 | % efficacy ([4]; 25 mg/kg oral capsule, Day 14): (85.0) % | Geometric mean group live tick count ([4]; 25 mg/kg oral capsule, Day 14): 2.5 | % efficacy ([4]; 25 mg/kg oral capsule, Day 21): (79.3) % | Geometric mean group live tick count ([4]; 25 mg/kg oral capsule, Day 21): 3.4 | % efficacy ([4]; 50 mg/kg oral capsule, Day 1): (80.9) % | Geometric mean group live tick count ([4]; 50 mg/kg oral capsule, Day 1): 2.0 | Geometric mean group live tick count ([4]; 50 mg/kg oral capsule, Day 2): 0.0 | Geometric mean group live tick count ([4]; 50 mg/kg oral capsule, Day 7): 0.6 | % efficacy ([4]; 50 mg/kg oral capsule, Day 14): (80.4) % | Geometric mean group live tick count ([4]; 50 mg/kg oral capsule, Day 14): 3.2 | % efficacy ([4]; 50 mg/kg oral capsule, Day 21): (75.1) % | Geometric mean group live tick count ([4]; 50 mg/kg oral capsule, Day 21): 4.0 | % efficacy ([5]; 25 mg/kg oral capsule, Day 17): (73.4) % | Geometric mean group live tick count ([5]; 25 mg/kg oral capsule, Day 17): 7.2 | % efficacy ([5]; 50 mg/kg oral capsule, Day 17): (80.2) % | Geometric mean group live tick count ([5]; 50 mg/kg oral capsule, Day 17): 5.4 | % efficacy ([5]; 50 mg/kg oral capsule, Day 30): (42.1) % | Geometric mean group live tick count ([5]; 50 mg/kg oral capsule, Day 30): 21.5

CC1(C)OB(O)c2ccc(C3=NO[C@@](c4cc(Cl)c(Cl)c(Cl)c4)(C(F)(F)F)C3)cc21 [Compound 17, (S)-3,3-Dimethyl-5-(5-(3,4,5-trichlorophenyl)-5-(trifluoromethyl)-4,5-dihydroisoxazol-3-yl)benzo[c][1,2]oxaborol-1(3H)-ol]
mortality at 300 µM [2]: ≥ 80% | tolerability ([3]; oral 50 mg/kg, Example 9): well tolerated | Geometric mean group live tick count [6]: 1.9 | tolerability [7]: well tolerated | Geometric mean group live flea count [8]: 0.0 | Geometric mean group live tick count ([9]; Day 1): 0.7 | Geometric mean group live tick count ([9]; Day 2): 0.0 | % efficacy ([9]; Day 7): (100) % | Geometric mean group live tick count ([9]; Day 7): 0.0 | % efficacy ([9]; Day 14): (96.7) % | Geometric mean group live tick count ([9]; Day 14): 1.2 | % efficacy ([9]; Day 21): (100) % | Geometric mean group live tick count ([9]; Day 21): 0.0 | Geometric mean group live tick count ([9]; Day 30): 1.9 | residual efficacy ([9]; through Day 21): 97-100%

CC1(C)OB(O)c2ccc(C3=NO[C@](c4cc(Cl)c(Cl)c(Cl)c4)(C(F)(F)F)C3)cc21 [Compound 18, (R)-3,3-Dimethyl-5-(5-(3,4,5-trichlorophenyl)-5-(trifluoromethyl)-4,5-dihydroisoxazol-3-yl)benzo[c][1,2]oxaborol-1(3H)-ol]
In vitro activity at 0.3 mM ([2]; 0.3 mM, A. americanum larvae, counted after 24 hours): 0.0% | tolerability [7]: well tolerated | % Efficacy at Dose of ≦5 mg/kg ([1]; oral point doses of ≦5 mg/kg, D. variabilis nymphs, 48 hours after treatment, 5 mg/kg): 10.7%
